The record followed here is patent US11001891B2, “Methods for treating Parkinson's disease” (Berg LLC, priority 2016, dated 2021).

Holding throughout (format): cell-based, human
One data set concerns PIG3 mRNA. The data set is described as follows: PIG3 mRNA expression in SH-SY5Y cells treated with rotenone or 6-OHDA in presence of kinase inhibitor. The conditions noted are these: 48 hours rotenone or 6-OHDA in the presence vs absence of inhibitor. The protocol: (§1) The purpose of this experiment was to test the effect of inhibiting the p38 MAPK activity on cell death and the expression of PIG3 in in vitro chemical model of Parkinson's Disease. […] SH-SY5Y cell death and PIG3 mRNA expression were assessed following treatment.
(§2) The purpose of this experiment was to test the effect of inhibiting LRRK2 activity on cell death and the expression of PIG3 in in vitro chemical model of Parkinson's Disease. […] SH-SY5Y cell death and PIG3 mRNA expression were assessed following treatment.

Data set [1] concerns SH-SY5Y cells. In words: Cell death in SH-SY5Y cells treated with rotenone or 6-OHDA (in vitro chemical model of Parkinson's Disease). The conditions noted are these: 48 hours rotenone or 6-OHDA in the presence vs absence of inhibitor.
From the text: The purpose of this experiment was to test the effect of inhibiting the expression of PIG3 in an in vitro chemical model of Parkinson's Disease. For this experiment, an siRNA capable of inhibiting the expression of PIG3 (PIG3 siRNA) was synthesized and tested in SH-SY5Y cells against a non-targeting […] (NTC).
as §1, §2

In data set [2] the test system is patient-specific induced pluripotent stem cells (iPSCs). The conditions noted are these: rotenone 0-1,000 nm or 6-OHDA 0.5-10 μM, 48 hours. The procedure: (§3) For the experiment, patient-specific iPSCs were prepared by reprogramming primary dermal fibroblasts harvested from the upper arm of PD+ and unaffected donors using a non-integrating, self-replicating polycistronic RNA construct containing the reprogramming factors OCT4, SOX2, KLF4 and GLIS1 (Millipore, Simplicon™) according to published protocols. […] Following the treatment, the amount of PIG3 protein in the cells and cell viability were assessed.

In a further data set the test system is PIG3 protein. In words: Time course of PIG3 protein in SH-SY5Y cells after 6-OHDA (immunoblot). The conditions noted are these: 50 nm 6-OHDA, normalized to actin. The protocol:
The purpose of this experiment was to access the effect of overexpression of PIG3 on cell viability and reactive oxygen species (ROS) production. To this end, SH-SY5Y cells stably overexpressing the PIG3 open reading frame (PIG3 ORF) were created and characterized by determining their viability, ROS burden and the amount of PIG3 protein produced in response to treatment with 50 nM 6-OHDA. Cell viability was measured relative to the empty vector control, pLOC (CTRL). ROS burden was estimated using DCFDA fluorescence measured by flow cytometry; and the amount of PIG3 protein was measured by immunoblotting and normalizing the densitometry of immunoreactivity to the amount of actin as a loading control.
A general note: In western blotting, separated proteins are transferred to a membrane and probed.

For a further data set, the system named is LRRK2-PD neurons. Conditions: iPSC-derived LRRK2-PD neurons, increasing concentrations of neurotoxin. The procedure: IPSCs were prepared from LRRK2-PD fibroblasts and then differentiated towards excitatory cortical neurons as described in the above examples and following published protocols (e.g., Shi et al., Nat. Neurosci. 2012, 15(3):10.1038; Chamber et al. Nat. Biotechnology, 2009, 27:275-280, the entire contents of which are incorporated herein by reference).

In the next data set the test system is PIG3. In words: PIG3 expression in patient-specific iPSCs after neurotoxin treatment. Conditions: rotenone 0-1,000 nm or 6-OHDA 0.5-10 μM, 48 hours. The protocol: as §3
Data set [3] concerns SH-SY5Y cells. In words: PIG3 protein, cleaved PARP and cell death in SH-SY5Y cells treated with 6-OHDA. Conditions: 6-OHDA 0, 50 and 100 μm, 48 hours. The protocol: This experiment was similar to the experiment described in Example 1, except that the in vitro chemical model of Parkinson's Disease involved treatment of SH-SY5Y cells with oxidopamine, also known as 6-hydroxydopamine (6-OHDA) or 2,4,5-trihydroxyphenethylamine 6-OHDA is known to have a selective adverse effect on dopaminergic and noradrenergic neurons. The structure of 6-OHDA is shown below:
For the experiment, SH-SY5Y cells were treated with 6-OHDA at a concentration of 0, 50 and 100 μm for 48 hours. Following the treatment, the amount of PIG3 protein in the cells and the extent of SH-SY5Y cell death were assessed. Cells treated with etoposide were used as a positive control. Apoptosis in the treated cells was assessed by measuring the amount of cleaved poly(ADP-ribose) polymerase (PARP).

Data set [4] concerns SH-SY5Y cells. The data set is described as follows: PIG3 protein, cleaved PARP and cell death in SH-SY5Y cells treated with rotenone. Conditions: rotenone 0, 50, 100 and 500 nm, 48 hours, immunoblot. The protocol:
The purpose of this experiment was to evaluate the expression of PIG3 and cell viability in an in vitro chemical model of Parkinson's Disease.
Following the treatment, the amount of PIG3 protein in the cells and the extent of SH-SY5Y cell death were assessed. Cells treated with etoposide, which is known to induce apoptosis, were used as a positive control. Apoptosis in the treated cells was assessed by measuring the amount of cleaved poly(ADP-ribose) polymerase

On to `COc1cc(C(=O)N2CCC(N3CCN(C)CC3)CC2)ccc1Nc1ncc2c(n1)N(C)c1ccccc1C(=O)N2C` [LRRK2-IN-1], for which the “PIG3 mRNA expression” value in the data set on PIG3 mRNA is listed as “decreased PIG3 mRNA expression”. Besides, the cell death result with SH-SY5Y cells [1] is reported as “decreased cell death”.
On to `NCCc1cc(O)c(O)cc1O` [6-OHDA, 2,4,5-trihydroxyphenethylamine], for which, in data set [2], the iPSC viability result is on record as “decreased viability”. Moreover, in the data set with PIG3 protein, the “relative amounts of PIG3 protein at different times after treatment” value is recorded as “time-dependent accumulation of PIG3 protein”. In the data set on LRRK2-PD neurons, the PIG3 protein entry is recorded as “further increases” and the “cleaved PARP expression” value is “further increases”. For the same molecule, the PIG3 expression entry in the data set on PIG3 was “increased PIG3 expression”. For the same molecule, the “apoptosis (cleaved PARP) / cell death” value with SH-SY5Y cells [3] was 6-OHDA-induced apoptosis. The “amount of PIG3 protein” value in the data set with SH-SY5Y cells [3] (immunoblot) is recorded as “increased as a function of increasing concentration of 6-OHDA”.
Regarding `C[S+]([O-])c1ccc(-c2nc(-c3ccncc3)c(-c3ccc(F)cc3)[nH]2)cc1` (centres unmarked) [SB203580], the “PIG3 mRNA expression” value with PIG3 mRNA is “decreased PIG3 mRNA expression”. For the same molecule, in the data set on SH-SY5Y cells [1], the cell death entry was “decreased cell death”.
In the case of `C=C(C)[C@H]1Cc2c(ccc3c2O[C@@H]2COc4cc(OC)c(OC)cc4[C@@H]2C3=O)O1` [rotenone], the PIG3 protein result in the data set with LRRK2-PD neurons is “further increases”. In addition, the “amount of PIG3 protein” value in the data set with SH-SY5Y cells [4] was “increased as a function of increasing concentration of rotenone”. Besides, the PIG3 expression entry in the data set with PIG3 is “increased PIG3 expression”.
